Laboratory results: patent US11752095B2, “Medroxyprogesterone acetate injectable compositions and methods of use” (Family Health International, priority 2018, dated 2023)
Where two headings read alike, the source gives them in different places.

Experiment: Pharmacokinetics in women (Example 23)
Format: in vivo
Conditions: composition with 400 mg/ml MPA; for Cmax / half-life / Tmax / concentration at 28 day / concentration at 91 day / concentration at 182 day: female, human, in vivo
Method: 12 women were sequentially administered medroxyprogesterone acetate. PK was evaluated for at least 182 days. The composition tested was an embodiment of the disclosure and included 400 mg/ml MPA,

AUC0-28, Mean (N 6): 9.84 ng·days/mL
AUC0-28, Median (N 6): 9.31 ng·days/mL
AUC0-28, Min-Max (N 6): 7.83 to 14.52 ng·days/mL
AUC0-91, Mean (N 6): 34.52 ng·days/mL
AUC0-91, Median (N 6): 34.87 ng·days/mL
AUC0-91, Min-Max (N 6): 23.41 to 44.06 ng·days/mL
AUC0-182, Mean (N 6): 60.21 ng·days/mL
AUC0-182, Median (N 6): 60.28 ng·days/mL
AUC0-182, Min-Max (N 6): 38.62 to 84.88 ng·days/mL
Cmax (N 6, read-out: Cmax, Mean): 0.53 ng/mL
Cmax (N 6, read-out: Cmax, Median): 0.55 ng/mL
Cmax (N 6, read-out: Cmax, Min-Max): 0.42 to 0.69 ng/mL
half-life (N 6, read-out: Half-life, Mean (converted)): 99.4 days
half-life (N 6, read-out: Half-life, Median (converted)): 104 days
half-life (N 6, read-out: Half-life, Min-Max): 22.9 to 166 days
Tmax (N 6, read-out: Tmax, Mean (converted)): 17.4 days
Tmax (N 6, read-out: Tmax, Median (converted)): 9.49 days
concentration at 28 day (day 28, N 6, read-out: C28, Mean): 0.36 ng/mL
concentration at 28 day (day 28, N 6, read-out: C28, Median): 0.36 ng/mL
concentration at 28 day (day 28, N 6, read-out: C28, Min-Max): 0.03 to 0.5 ng/mL
concentration at 91 day (day 91, N 6, read-out: C91, Mean): 0.41 ng/mL
concentration at 91 day (day 91, N 6, read-out: C91, Median): 0.41 ng/mL
concentration at 91 day (day 91, N 6, read-out: C91, Min-Max): 0.26 to 0.63 ng/mL
concentration at 182 day (day 182, N 6, read-out: C182, Mean): 0.22 ng/mL
concentration at 182 day (day 182, N 6, read-out: C182, Median): 0.22 ng/mL
concentration at 182 day (day 182, N 6, read-out: C182, Min-Max): 0.14 to 0.34 ng/mL
Structure (SMILES): CC(=O)O[C@]1(C(C)=O)CC[C@H]2[C@@H]3C[C@H](C)C4=CC(=O)CC[C@]4(C)[C@H]3CC[C@@]21C [medroxyprogesterone acetate]
